In PubChem BioAssay (NCI):
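Results reflect a 48-hour exposure of cells in 96-well plates to compound at five concentrations. At the GI50, growth is halved. TGI: total growth inhibition.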 Where a SMILES comes first, the peptide text is derived from it. [ ]: non-standard residue; d: D form.

Experiments:
Experiment in all cases: NCI tumour cell line growth inhibition, 48 h
HCC-2998 colon = system: HCC-2998 colon
DMS 114 small cell lung = system: DMS 114 small cell lung
OVCAR-4 ovarian = system: OVCAR-4 ovarian
M19-MEL melanoma = system: M19-MEL melanoma
KM20L2 colon = system: KM20L2 colon
CAKI-1 renal = system: CAKI-1 renal
DLD-1 colon = system: DLD-1 colon
SNB-78 CNS = system: SNB-78 CNS
DMS 273 small cell lung = system: DMS 273 small cell lung
HL-60(TB) leukemia = system: HL-60(TB) leukemia
NCI/ADR-RES ovarian = system: NCI/ADR-RES ovarian
A498 renal = system: A498 renal
DU-145 prostate = system: DU-145 prostate

Row | Structure (SMILES) | TGI (HCC-2998 colon) [µM] | TGI (DMS 114 small cell lung) [µM] | TGI (OVCAR-4 ovarian) [µM] | TGI (M19-MEL melanoma) [µM] | TGI (KM20L2 colon) [µM] | TGI (CAKI-1 renal) [µM] | TGI (DLD-1 colon) [µM] | TGI (SNB-78 CNS) [µM] | TGI (DMS 273 small cell lung) [µM] | TGI (HL-60(TB) leukemia) [µM] | TGI (NCI/ADR-RES ovarian) [µM] | TGI (A498 renal) [µM] | TGI (DU-145 prostate) [µM] | GI50 (HCC-2998 colon) [µM] | GI50 (OVCAR-4 ovarian) [µM] | GI50 (DU-145 prostate) [µM] | GI50 (HL-60(TB) leukemia) [µM] | GI50 (CAKI-1 renal) [µM] | GI50 (NCI/ADR-RES ovarian) [µM] | GI50 (A498 renal) [µM]
1 | COc1ccc(C(C2=C(O)CC(C)OC2=O)C2=C(O)CC(C)OC2=O)cc1 (configuration not stated) | > 100 | > 100 | > 100 | > 100 | > 100 | > 100 | > 100 | > 100 | > 100 |  |  |  |  |  |  |  |  |  |  | 
2 | CC(C)C[C@H](NC(=O)[C@H](CC(C)C)NC(=O)[C@@H](Cc1c[nH]c2ccccc12)NC(=O)[C@H](Cc1ccccc1)NC(=O)[C@@H](Cc1c[nH]c2ccccc12)NC(=O)[C@H](CCC(N)=O)NC(=O)[C@@H](CCC(N)=O)NC(=O)[C@@H]1CCCN1C(=O)[C@@H](CCCCN)NC(=O)[C@H]1CCCN1C(=O)[C@H](N)CCCN=C(N)N)C(N)=O (H-[dR][dP][dK]P[dQ]Q[dW]F[dW]LL-NH2) | > 100 | > 100 | > 100 | > 100 | > 100 |  | > 100 | > 100 | > 100 | > 100 | > 100 | 88.1 |  |  |  |  |  |  |  | 
3 | C/C(=N\N=C(N)N)C(CN1CCOCC1)C(c1ccccc1)c1c(O)c2ccccc2oc1=O (configuration not stated) | > 100 | > 100 | > 100 | > 100 | > 100 | > 100 | > 100 | > 100 | > 100 | > 100 |  |  |  |  |  |  |  |  |  | 
4 | O=C(CC12C3C4C1C1C2C3C41CC(=O)NO)NO (configuration not stated) | > 100 | 60.6 |  |  | > 100 | > 100 | > 100 | > 100 | > 100 | 86.2 |  | 76.1 |  |  |  |  |  |  |  | 
5 | N=C1C=CC(=C(c2ccc(N)cc2)c2ccc(N)cc2)C=C1 | 18.6 | 15.4 | 52.4 | 16.8 | 21.5 | 58.1 | > 100 | 18.9 |  | 36.1 | 49.3 | 17.3 | 17.7 |  |  |  |  |  |  | 
6 | N#CC1=C(O)NC(O)=C(C#N)C1c1c(Cl)cccc1Cl | 60 | 46 | > 100 | > 100 | > 100 | > 100 | 58 | > 100 | 92 | > 100 |  | 64.5 |  |  |  |  |  |  |  | 
7 | O=S(=O)(O)c1cc(S(=O)(=O)O)c2cc(N=Nc3ccc(N=Nc4ccc(/C=C/c5ccc(N=[N+]([O-])c6ccc(/C=C/c7ccc(N=Nc8ccc(N=Nc9ccc%10cc(S(=O)(=O)O)cc(S(=O)(=O)O)c%10c9)cc8)cc7S(=O)(=O)O)c(S(=O)(=O)O)c6)cc5S(=O)(=O)O)c(S(=O)(=O)O)c4)cc3)ccc2c1 | > 100 | > 100 | > 100 | > 100 | > 100 |  | > 100 | > 100 | > 100 | > 100 | > 100 | > 100 |  |  |  |  |  |  |  | 
8 | CSc1ccc(N2C(=O)C3c4[nH]c5ccccc5c4C4CCC(C(C)(C)C)CC4C3C2=O)cc1 (configuration not stated) | 33.3 | 63.5 | 24.9 | > 100 | > 100 | 42.9 | > 100 | 31.1 | 25.3 | 31.1 |  | 33.7 |  |  |  |  |  |  |  | 
9 | O=C1Sc2ccccc2C(=O)N2CCSC12 (configuration not stated) | > 100 | > 100 |  | > 100 | > 100 |  | > 100 | > 100 | > 100 | > 100 |  | > 100 |  |  |  |  |  |  |  | 
10 | O=C1CCC2(O)c3ccccc3C2Cc2ccccc21 (configuration not stated) | > 100 | > 100 |  | > 100 | > 100 |  | > 100 | > 100 | > 100 | > 100 |  |  |  |  |  |  |  |  |  | 
11 | NC(=Nc1ccccc1)N/N=C/c1c[nH]c2ccccc12 | 2.35 | 2.03 | 15 |  | 1.09 | 22.9 | 30.2 | 19.7 | 13.8 | 4.54 | 0.455 | 2.12 | 2.59 |  |  |  |  |  |  | 
12 | Cc1cc(C)[n+]2c(c1)C=CC2 | > 100 | 93.3 | > 100 | > 100 | > 100 | > 100 | > 100 | > 100 | 4.24 | 26.3 |  |  |  |  |  |  |  |  |  | 
13 | Clc1ccc(C2SCc3nc4ccccc4n32)cc1 (configuration not stated) |  | 37.4 |  | 54.3 | > 100 | 73.9 |  | > 100 | 36.2 | 22.6 |  | 55.5 |  |  |  |  |  |  |  | 
14 | N#CCCN(CCCCN(CCC#N)C(=O)Nc1ccccc1)C(=O)Nc1ccccc1 | > 100 |  | > 100 |  |  | > 100 |  |  |  | > 100 | > 100 | > 100 | > 100 |  |  |  |  |  |  | 
15 | COCC(C#N)NC1CC(OC2CC(O)(C(=O)CO)Cc3c(O)c4c(c(O)c32)C(=O)c2c(OC)cccc2C4=O)OC(C)C1O (configuration not stated) | 0.471 | 0.176 | 2.08 | 0.22 | 2.89 | 0.285 | 4.67 | 4.54 | 0.602 | 0.432 | 16 | 0.448 |  |  |  |  |  |  |  | 
16 | CCCCCCCCCCCC(=O)N(CCCCCCCCC)CC(O)C(O)C(OC1OC(CO)C(O)C(O)C1O)C(O)CO (configuration not stated) | 32 |  | 49.6 |  |  | 35.5 |  |  |  | 45.8 | 38.7 | 39.5 | 33.8 |  |  |  |  |  |  | 
17 | COc1cc(C(c2ccccc2)N2C(=O)CC[C@H]2C(=O)O)cc(OC)c1OC (some centres not stated) | > 100 |  | > 100 |  |  | > 100 |  |  |  | > 100 | > 100 | > 100 | > 100 |  |  |  |  |  |  | 
18 | COc1ccc(C2N(c3ccc(C)c(N=C=O)c3)C(=O)N3C(c4ccc(OC)cc4)N(c4ccc(C)c(N=C=O)c4)C(=O)N23)cc1 (configuration not stated) | > 100 |  | > 100 |  |  | > 100 |  |  |  | > 100 | > 100 | > 100 | > 100 |  |  |  |  |  |  | 
19 | Cc1ccc2sc3c(NCCCN)nc4ccccc4c3c(=O)c2c1 | 3.25 |  | 4.69 |  |  | 3.25 |  |  |  | 4.09 | 3.45 | 4.64 | 3.39 | 1.74 | 2.16 | 1.87 | 2.05 | 1.67 | 1.8 | 1.87
20 | CC1(C)CCC2=C(O1)c1ccccc1C(=Nc1ccc([N+](=O)[O-])cc1)C2=O | 32.2 |  | 38.7 |  |  | 32.2 |  |  |  | > 100 | > 100 | 33.6 | 30.4 |  |  | 16.8 |  |  |  | 
21 | c1ccc2c(c1)nnn2C1CCCCO1 (configuration not stated) | > 100 |  | > 100 |  |  | > 100 |  |  |  | > 100 | > 100 | > 100 | > 100 |  |  |  |  |  |  | 
22 | OCc1ccc2c(c1)CC1(Cc3ccccc3C1)C2 | > 100 |  | > 100 |  |  | 50.5 |  |  |  | 67.4 | 59.5 | > 100 | > 100 |  |  |  |  |  |  | 
